Laboratory results taken from ChEMBL document CHEMBL1201862, “PubChem BioAssay data set” (2004).
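In this assay, cells in 96-well plates receive the compound at five concentrations for 48 hours. Endpoints are linearly interpolated between the surrounding concentrations. At the GI50, growth is halved.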 The source made the active and inactive calls. Rule as the data show it: active = GI50 up to about 1.1 µM and inactive = higher.

Assays:
Experiment in all cases: NCI anticancer screen, dose series, 48 h
CCRF-CEM = test system: CCRF-CEM
UACC-257 = test system: UACC-257
T47D = test system: T47D
CAKI-1 = test system: CAKI-1
IGROV-1 = test system: IGROV-1
SNB-75 = test system: SNB-75
MCF7 = test system: MCF7
RXF 393 = test system: RXF 393
COLO 205 = test system: COLO 205
SF-295 = test system: SF-295
SN12C = test system: SN12C
NCI/ADR-RES = test system: NCI/ADR-RES
BT-549 = test system: BT-549
NCI-H522 = test system: NCI-H522
MDA-MB-435 = test system: MDA-MB-435
HOP-92 = test system: HOP-92
Hs-578T = test system: Hs-578T
HT-29 = test system: HT-29
DLD-1 = test system: DLD-1
M19-MEL = test system: M19-MEL

| SMILES | GI50 (CCRF-CEM) | GI50 (UACC-257) | GI50 (T47D) | GI50 (CAKI-1) | GI50 (IGROV-1) | GI50 (SNB-75) | GI50 (MCF7) | GI50 (RXF 393) | GI50 (COLO 205) | GI50 (SF-295) | GI50 (SN12C) | GI50 (NCI/ADR-RES) | GI50 (BT-549) | GI50 (NCI-H522) | GI50 (MDA-MB-435) | GI50 (HOP-92) | GI50 (Hs-578T) | GI50 (HT-29) | GI50 (DLD-1) | GI50 (M19-MEL) |
| --- | --- | --- | --- | --- | --- | --- | --- | --- | --- | --- | --- | --- | --- | --- | --- | --- | --- | --- | --- | --- |
| CC(C)=C1C2CC3(C)CCC2(C)CCC13.CC1=CCC2C3(C)CCC2(C(C)C)C1C3 (stereo not given) | 24.5 µM (inactive) | 27.2 µM (inactive) | 36.7 µM (inactive) | 17.3 µM (inactive) | 16.5 µM (inactive) | 23.2 µM (inactive) | 19 µM (inactive) | 17.8 µM (inactive) | 26.7 µM (inactive) | 20 µM (inactive) | 18.2 µM (inactive) | 18.4 µM (inactive) | 19.8 µM (inactive) | 20.8 µM (inactive) | 28.9 µM (inactive) | 27.7 µM (inactive) | 18.4 µM (inactive) | 16.2 µM (inactive) |  |  |
| C1=CC2C=CC(C=C1)P2c1ccccc1 (stereo not given) | > 100 µM (inactive) | > 100 µM (inactive) | > 100 µM (inactive) | > 100 µM (inactive) | > 100 µM (inactive) | > 100 µM (inactive) | > 100 µM (inactive) | > 100 µM (inactive) | > 100 µM (inactive) | > 100 µM (inactive) | > 100 µM (inactive) | > 100 µM (inactive) | > 100 µM (inactive) | > 100 µM (inactive) | > 100 µM (inactive) | > 100 µM (inactive) | > 100 µM (inactive) | > 100 µM (inactive) |  |  |
| O=C1C=Cc2ncccc2C1=O | 7.05 µM (inactive) | 20 µM (inactive) |  | 21.1 µM (inactive) | 32.2 µM (inactive) | 21.3 µM (inactive) |  | 20 µM (inactive) | 18 µM (inactive) | 17.6 µM (inactive) | 21.2 µM (inactive) |  |  | 15.7 µM (inactive) |  | 21.1 µM (inactive) |  | 22.2 µM (inactive) | 18.7 µM (inactive) |  |
| C[n+]1cccc2ccc3cccnc3c21 | > 100 µM (inactive) | 41.9 µM (inactive) | 21 µM (inactive) | > 100 µM (inactive) | 76 µM (inactive) | 23.6 µM (inactive) | 38.5 µM (inactive) | 46.3 µM (inactive) | 17.7 µM (inactive) | 43.6 µM (inactive) | 35.1 µM (inactive) | > 100 µM (inactive) | 31.7 µM (inactive) | 10 µM (inactive) | 69.2 µM (inactive) | 57.7 µM (inactive) | 12.7 µM (inactive) | 28.2 µM (inactive) |  |  |
| CN(C)CCCNC(=O)N/N=C/c1cccc([N+](=O)[O-])c1 | > 100 µM (inactive) | > 100 µM (inactive) |  |  | > 100 µM (inactive) | 44 µM (inactive) |  | > 100 µM (inactive) |  | > 100 µM (inactive) | > 100 µM (inactive) |  |  | > 100 µM (inactive) |  |  |  | > 100 µM (inactive) | > 100 µM (inactive) |  |
| CCCN(C(=O)c1ccccc1)C(C#N)c1ccc(C(C#N)N(CCC)C(=O)c2ccccc2)cc1 (stereo not given) | > 100 µM (inactive) | > 100 µM (inactive) | 11.2 µM (inactive) | > 100 µM (inactive) | 32.4 µM (inactive) | 18.4 µM (inactive) | > 100 µM (inactive) | 35.6 µM (inactive) | > 100 µM (inactive) | 42.4 µM (inactive) | > 100 µM (inactive) | 38.5 µM (inactive) | 48.4 µM (inactive) | > 100 µM (inactive) | > 100 µM (inactive) | 16.3 µM (inactive) | 24.9 µM (inactive) | 21.6 µM (inactive) |  |  |
| Cc1ccc(/N=N/c2ccc(O)c(CN(C)C)c2)cc1 | 22.8 µM (inactive) | 17.8 µM (inactive) | 13.7 µM (inactive) | 21.5 µM (inactive) | 15.1 µM (inactive) | 21.6 µM (inactive) | 24.2 µM (inactive) | 4.66 µM (inactive) | 17.7 µM (inactive) | 18.1 µM (inactive) | 35.8 µM (inactive) | 22.6 µM (inactive) | 23.1 µM (inactive) | 16.7 µM (inactive) | 17.3 µM (inactive) | 12.6 µM (inactive) | 18.5 µM (inactive) | 17.2 µM (inactive) |  |  |
| O=c1[nH]c(-c2ccccc2)nc2cc([N+](=O)[O-])c(/C(Cl)=C/c3ccccc3)cc12 |  | 16.1 µM (inactive) |  | 15.1 µM (inactive) | 55 µM (inactive) | 22.3 µM (inactive) |  | 14.4 µM (inactive) | 21.5 µM (inactive) | 20.7 µM (inactive) | 36.6 µM (inactive) |  |  | 17.3 µM (inactive) |  | 11.8 µM (inactive) |  | > 10 µM (inactive) |  | 37.8 µM (inactive) |
| c1ccc2cc(CNCCCCNCCCNCc3ccc4ccccc4c3)ccc2c1 | 0.351 µM (active) | 1.88 µM (inactive) | 2.77 µM (inactive) | 1.81 µM (inactive) | 0.585 µM (active) | 1.5 µM (inactive) | 0.548 µM (active) | 1.49 µM (inactive) | 0.277 µM (active) | 1.5 µM (inactive) | 0.733 µM (active) | 1.68 µM (inactive) | 1.78 µM (inactive) | 1.14 µM (inactive) | 1.45 µM (inactive) | 1.56 µM (inactive) | 0.167 µM (active) | 0.229 µM (active) |  |  |
| CCO/N=C\c1ccc2oc(-c3ccccc3)cc(=O)c2c1 | 0.228 µM (active) | 18.3 µM (inactive) | 27.5 µM (inactive) | 0.427 µM (active) | 0.24 µM (active) | 0.219 µM (active) | 0.31 µM (active) | 0.261 µM (active) | 0.0506 µM (active) | 0.191 µM (active) | 0.303 µM (active) | 0.0501 µM (active) | 1.06 µM (active) | 0.0247 µM (active) | 0.0133 µM (active) | 3.26 µM (inactive) | 0.402 µM (active) | 0.0521 µM (active) |  |  |
| Cc1ccccc1NC(=O)CC(=O)n1nc(-c2ccccc2)c(/N=N/c2ccc([N+](=O)[O-])cc2)c1-c1ccccc1 | 28.4 µM (inactive) | 19.9 µM (inactive) |  | 5.87 µM (inactive) | 28.1 µM (inactive) | 19.2 µM (inactive) |  | 19.1 µM (inactive) | 16.8 µM (inactive) | 17.4 µM (inactive) | 22.1 µM (inactive) |  |  | 18.9 µM (inactive) |  | 11.4 µM (inactive) |  | 8.34 µM (inactive) | 18.7 µM (inactive) |  |
| O=C(/C(=C/c1cccs1)c1ccccc1)c1ccccc1 | > 100 µM (inactive) | > 100 µM (inactive) | > 100 µM (inactive) | > 100 µM (inactive) | > 100 µM (inactive) | 37.7 µM (inactive) | > 100 µM (inactive) | 4.99 µM (inactive) | > 100 µM (inactive) | > 100 µM (inactive) | 82.2 µM (inactive) | > 100 µM (inactive) | > 100 µM (inactive) | 53.7 µM (inactive) | > 100 µM (inactive) | > 100 µM (inactive) | > 100 µM (inactive) | 53.2 µM (inactive) |  |  |
| CN(C)CCCn1nc(N)c2nc3cc(Cl)ccc3nc21 | 31 µM (inactive) | 24.5 µM (inactive) | 92.3 µM (inactive) | > 79.6 µM (inactive) | 22.9 µM (inactive) | 67.8 µM (inactive) | 33.3 µM (inactive) | 30.6 µM (inactive) | 33 µM (inactive) | > 77.1 µM (inactive) | 59.8 µM (inactive) | 71.8 µM (inactive) | > 100 µM (inactive) | 61.9 µM (inactive) | 34 µM (inactive) | 25.3 µM (inactive) | 41.4 µM (inactive) | 27.9 µM (inactive) |  |  |
